{"source": "patent US6472228B2", "about": "“Composition and methods for synthesis of novel tracers for detecting amphetamine and methamphetamine in samples” (Lifepoint, Inc., priority 2000, dated 2002)", "origin": "cited, not measured here", "details": "GC/MASS", "data": [{"compound": "CN[C@@H](C)Cc1ccccc1", "note": "[methamphetamine]", "values": [{"measurement": "detectable in saliva samples after the last dose", "value": "up to 2 days"}]}]}
